Measured values from ChEMBL document CHEMBL3997792, “Identification of the First Selective Activin Receptor-Like Kinase 1 Inhibitor, a Reversible Version of L-783277” (J Med Chem, 2017).
Calls of active or inactive are those of the source. The calls are words filed in the database; no cut-off is given here.

What was measured:
[1] = biological target: T1, Activin receptor type-1-like (Mus musculus) (UniProt Q61288); experiment: Inhibition of BMP9-stimulated ALK1 in mouse C2C12 cells assessed as reduction in Smad1/5 phosphorylation at 0.1 to 1 uM pretreated for 2 hrs followed by BMP9-stimulation after 30 mins by western blot analysis; assay type: cell-based
T1 sequence (whole entry): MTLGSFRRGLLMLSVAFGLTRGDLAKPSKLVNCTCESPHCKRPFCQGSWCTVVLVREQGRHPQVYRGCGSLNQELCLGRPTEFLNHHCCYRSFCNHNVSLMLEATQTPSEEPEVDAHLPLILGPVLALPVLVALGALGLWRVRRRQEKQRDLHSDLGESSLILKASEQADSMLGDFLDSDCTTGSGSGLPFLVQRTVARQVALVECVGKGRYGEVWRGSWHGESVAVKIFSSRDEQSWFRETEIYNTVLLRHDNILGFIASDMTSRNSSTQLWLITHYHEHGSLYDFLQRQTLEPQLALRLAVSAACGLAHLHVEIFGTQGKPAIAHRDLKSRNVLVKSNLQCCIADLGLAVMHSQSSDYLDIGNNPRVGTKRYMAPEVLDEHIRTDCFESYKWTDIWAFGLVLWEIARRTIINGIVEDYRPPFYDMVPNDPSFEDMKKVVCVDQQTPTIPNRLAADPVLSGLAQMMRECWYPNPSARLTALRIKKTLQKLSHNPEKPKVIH

[2] = biological target: T2, Vascular endothelial growth factor receptor 2 (Homo sapiens, UniProt P35968); settings: 1 uM
T2 sequence (P35968 whole entry): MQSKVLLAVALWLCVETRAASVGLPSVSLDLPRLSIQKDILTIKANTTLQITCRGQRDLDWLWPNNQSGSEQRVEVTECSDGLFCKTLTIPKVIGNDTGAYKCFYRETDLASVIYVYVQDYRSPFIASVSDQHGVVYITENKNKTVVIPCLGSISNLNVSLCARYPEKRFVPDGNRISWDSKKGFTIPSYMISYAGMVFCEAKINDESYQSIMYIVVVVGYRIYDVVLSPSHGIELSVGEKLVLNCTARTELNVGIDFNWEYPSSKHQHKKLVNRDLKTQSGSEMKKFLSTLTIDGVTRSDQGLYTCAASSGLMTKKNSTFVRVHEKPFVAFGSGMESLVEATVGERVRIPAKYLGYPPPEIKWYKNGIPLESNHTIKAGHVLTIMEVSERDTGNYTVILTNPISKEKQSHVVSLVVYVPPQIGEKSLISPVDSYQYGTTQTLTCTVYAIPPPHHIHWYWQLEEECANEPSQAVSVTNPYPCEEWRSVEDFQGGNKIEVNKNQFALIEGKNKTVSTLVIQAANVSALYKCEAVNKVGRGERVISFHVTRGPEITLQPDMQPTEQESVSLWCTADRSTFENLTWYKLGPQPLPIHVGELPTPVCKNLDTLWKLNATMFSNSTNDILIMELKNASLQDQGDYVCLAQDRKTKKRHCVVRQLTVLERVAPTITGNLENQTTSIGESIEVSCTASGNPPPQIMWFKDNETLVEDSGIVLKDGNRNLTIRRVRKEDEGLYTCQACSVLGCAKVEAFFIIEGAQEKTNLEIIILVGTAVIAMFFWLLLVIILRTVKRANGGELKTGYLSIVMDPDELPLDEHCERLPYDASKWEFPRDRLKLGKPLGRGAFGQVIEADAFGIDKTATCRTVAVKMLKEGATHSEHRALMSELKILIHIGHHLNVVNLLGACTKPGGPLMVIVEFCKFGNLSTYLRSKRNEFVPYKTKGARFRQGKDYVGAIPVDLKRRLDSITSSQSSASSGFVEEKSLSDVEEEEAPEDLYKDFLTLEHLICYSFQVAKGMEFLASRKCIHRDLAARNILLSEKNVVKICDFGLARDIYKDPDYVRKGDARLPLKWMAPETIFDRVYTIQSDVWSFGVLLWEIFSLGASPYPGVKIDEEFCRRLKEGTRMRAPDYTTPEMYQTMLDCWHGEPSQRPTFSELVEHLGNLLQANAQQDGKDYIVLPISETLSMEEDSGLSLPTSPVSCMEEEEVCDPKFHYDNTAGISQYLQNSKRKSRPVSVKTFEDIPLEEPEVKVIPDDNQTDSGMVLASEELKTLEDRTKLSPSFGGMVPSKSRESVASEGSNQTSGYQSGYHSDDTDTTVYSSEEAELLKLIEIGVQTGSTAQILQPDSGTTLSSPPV
Description: Inhibition of human KDR at 1 uM using poly[Glu:Tyr] (4:1) as substrate in presence of [gamma-33P]-ATP by scintillation counting method relative to control

[3] = biological target: Receptor-type tyrosine-protein kinase FLT3 (Homo sapiens) (UniProt P36888); settings: 1 uM
[4] = biological target: Activin receptor type-1B (Homo sapiens, UniProt P36896); experiment: Inhibition of human ALK4 using casein as substrate in presence of 10 uM ATP by radiometric kinase assay
Chain of Activin receptor type-1B (P36896 whole entry): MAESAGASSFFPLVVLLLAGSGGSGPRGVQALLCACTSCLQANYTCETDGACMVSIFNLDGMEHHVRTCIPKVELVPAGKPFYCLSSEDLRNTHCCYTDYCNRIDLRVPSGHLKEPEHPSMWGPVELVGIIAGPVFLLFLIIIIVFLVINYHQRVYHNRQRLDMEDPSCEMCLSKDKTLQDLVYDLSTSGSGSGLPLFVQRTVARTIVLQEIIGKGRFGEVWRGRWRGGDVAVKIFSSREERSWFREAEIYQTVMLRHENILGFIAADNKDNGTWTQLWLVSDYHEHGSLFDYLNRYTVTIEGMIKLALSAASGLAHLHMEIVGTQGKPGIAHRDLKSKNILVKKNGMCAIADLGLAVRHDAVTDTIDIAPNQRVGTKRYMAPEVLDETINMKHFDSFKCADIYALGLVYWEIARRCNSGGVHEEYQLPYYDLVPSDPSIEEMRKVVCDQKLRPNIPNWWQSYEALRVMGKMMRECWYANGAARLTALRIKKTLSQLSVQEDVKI

[5] = biological target: T3, Activin receptor type-1-like (Homo sapiens, UniProt P37023); settings: 1 uM
T3 sequence (P37023 whole entry): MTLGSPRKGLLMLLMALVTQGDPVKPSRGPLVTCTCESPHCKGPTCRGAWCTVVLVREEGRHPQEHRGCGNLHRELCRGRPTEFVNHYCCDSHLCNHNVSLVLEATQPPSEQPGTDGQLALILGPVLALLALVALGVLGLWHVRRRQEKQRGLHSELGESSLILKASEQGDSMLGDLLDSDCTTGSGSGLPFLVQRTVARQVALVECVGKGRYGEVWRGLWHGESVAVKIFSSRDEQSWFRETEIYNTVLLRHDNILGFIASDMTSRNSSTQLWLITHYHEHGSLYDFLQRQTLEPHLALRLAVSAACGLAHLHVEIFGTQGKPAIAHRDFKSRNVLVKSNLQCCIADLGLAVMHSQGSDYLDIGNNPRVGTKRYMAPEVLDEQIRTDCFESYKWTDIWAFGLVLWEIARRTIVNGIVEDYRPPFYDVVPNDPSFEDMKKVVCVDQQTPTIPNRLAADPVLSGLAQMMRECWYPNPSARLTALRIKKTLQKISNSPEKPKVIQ
Description: Inhibition of ALK1 in human A375 cells assessed as decrease in MEK1/2 phosphorylation at 1 uM by western blot analysis

[6] = biological target: T1, Activin receptor type-1-like (Mus musculus); experiment: Inhibition of BMP9-stimulated ALK1 in mouse C2C12 cells assessed as decrease in AKT phosphorylation at S473 at 0.1 to 10 uM pretreated for 2 hrs followed by BMP9-stimulation after 30 mins by western blot analysis; assay type: cell-based
[7] = biological target: T1, Activin receptor type-1-like (Mus musculus); experiment: Inhibition of ALK1 in mouse C2C12 cells assessed as downregulation of BMP9-induced Id1 protein levels at 10 uM pretreated for 2 hrs followed by BMP9-stimulation after 30 mins by western blot analysis; assay type: cell-based
[8] = system: HUVEC; experiment: Angiogenic activity in HUVEC assessed as increase in sprout length at 2 to 50 uM by microfluidic chip based 3D angiogenesis assay; assay type: functional, cell-based; settings: Homo sapiens
[9] = biological target: T2, Vascular endothelial growth factor receptor 2; experiment: Inhibition of human KDR using poly[Glu:Tyr] (4:1) as substrate in presence of [gamma-33P]-ATP by scintillation counting method
[10] = system: HUVEC; experiment: Angiogenic activity in HUVEC assessed as increase in angiogenic sprouting in presence of recombinant human VEGF165 by microfluidic chip based 3D angiogenesis assay; assay type: functional, cell-based
[11] = system: HUVEC; experiment: Angiogenic activity in HUVEC assessed as increase in angiogenic sprouting at 2 to 50 uM by microfluidic chip based 3D angiogenesis assay; assay type: functional, cell-based; settings: Homo sapiens
[12] = biological target: T4, Activin receptor type-1 (Homo sapiens, UniProt Q04771); experiment: Inhibition of human ALK2 using casein as substrate in presence of 10 uM ATP by radiometric kinase assay
T4 sequence (Q04771 whole entry): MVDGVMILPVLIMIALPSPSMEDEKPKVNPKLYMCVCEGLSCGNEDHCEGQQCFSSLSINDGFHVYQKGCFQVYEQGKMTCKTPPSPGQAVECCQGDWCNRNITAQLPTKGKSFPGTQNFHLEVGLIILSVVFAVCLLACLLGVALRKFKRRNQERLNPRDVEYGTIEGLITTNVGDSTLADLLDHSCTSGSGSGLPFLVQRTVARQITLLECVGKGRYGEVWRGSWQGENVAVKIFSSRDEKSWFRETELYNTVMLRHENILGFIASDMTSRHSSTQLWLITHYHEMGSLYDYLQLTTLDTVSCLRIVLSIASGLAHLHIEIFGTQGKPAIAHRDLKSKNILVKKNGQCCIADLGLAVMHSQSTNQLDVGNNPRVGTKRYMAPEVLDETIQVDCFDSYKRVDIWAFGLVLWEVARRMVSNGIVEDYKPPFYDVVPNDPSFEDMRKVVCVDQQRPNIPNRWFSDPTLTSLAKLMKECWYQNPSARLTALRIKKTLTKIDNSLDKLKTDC

[13] = biological target: Bone morphogenetic protein receptor type-1A (Homo sapiens, UniProt P36894); experiment: Inhibition of human ALK3 using casein as substrate in presence of 10 uM ATP by radiometric kinase assay
[14] = biological target: T1, Activin receptor type-1-like (Mus musculus); experiment: Inhibition of ALK1 in mouse C2C12 cells assessed as downregulation of BMP9-induced Id1 mRNA levels at 10 uM pretreated for 2 hrs followed by BMP9-stimulation after 30 mins by RT-PCR analysis; assay type: cell-based
[15] = biological target: T1, Activin receptor type-1-like (Mus musculus); experiment: Inhibition of BMP9-stimulated ALK1 in mouse C2C12 cells assessed as decrease in p38 phosphorylation at 0.1 to 10 uM pretreated for 2 hrs followed by BMP9-stimulation after 30 mins by western blot analysis; assay type: cell-based
[16] = biological target: TGF-beta receptor type-1 (Homo sapiens, UniProt P36897); experiment: Inhibition of human ALK5 using casein as substrate in presence of 10 uM ATP by radiometric kinase assay
Chain of TGF-beta receptor type-1 (Homo sapiens, UniProt P36897) (P36897 whole entry): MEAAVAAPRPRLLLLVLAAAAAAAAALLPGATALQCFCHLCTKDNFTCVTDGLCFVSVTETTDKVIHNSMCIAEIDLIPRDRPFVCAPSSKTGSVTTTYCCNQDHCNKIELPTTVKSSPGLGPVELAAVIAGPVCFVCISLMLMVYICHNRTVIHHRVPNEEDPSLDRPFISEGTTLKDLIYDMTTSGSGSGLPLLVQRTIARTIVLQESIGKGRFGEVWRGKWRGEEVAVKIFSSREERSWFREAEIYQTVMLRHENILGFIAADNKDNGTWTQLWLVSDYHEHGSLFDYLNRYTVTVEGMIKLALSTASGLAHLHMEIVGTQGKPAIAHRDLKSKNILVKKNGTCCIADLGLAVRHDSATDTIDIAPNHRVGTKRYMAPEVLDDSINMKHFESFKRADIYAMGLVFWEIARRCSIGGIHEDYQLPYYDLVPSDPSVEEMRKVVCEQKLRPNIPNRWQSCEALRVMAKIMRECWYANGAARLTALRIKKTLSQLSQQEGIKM

[17] = biological target: T1, Activin receptor type-1-like (Mus musculus); experiment: Inhibition of BMP9-stimulated ALK1 in mouse C2C12 cells assessed as decrease in MEK phosphorylation at 0.1 to 10 uM pretreated for 2 hrs followed by BMP9-stimulation after 30 mins by western blot analysis; assay type: cell-based
[18] = biological target: Bone morphogenetic protein receptor type-1B (Homo sapiens, UniProt O00238); experiment: Inhibition of human ALK6 using casein as substrate in presence of 10 uM ATP by radiometric kinase assay
[19] = biological target: ALK4 (activin receptor type-1B) (Homo sapiens, UniProt P36896); experiment: Inhibition of human ALK4 at 10 uM using casein as substrate in presence of 200 uM ATP by radiometric kinase assay relative to control; settings: human ALK4 kinase (activin receptor type-1B), probe casein
Chain of ALK4 (activin receptor type-1B) (P36896 whole entry): as the sequence (P36896 whole entry) above

[20] = system: HUVEC; experiment: Angiogenic activity in HUVEC assessed as increase in vascular endothelial tube formation incubated for 6 hrs measured every 3 hrs by matrigel based light microscopic analysis; assay type: functional, cell-based; settings: Homo sapiens
[21] = biological target: ALK6 (bone morphogenetic protein receptor type-1B) (Homo sapiens, UniProt O00238); experiment: Inhibition of human ALK6 at 10 uM using casein as substrate in presence of 200 uM ATP by radiometric kinase assay relative to control; settings: probe casein
[22] = biological target: T5, TGF-beta receptor type-1 (Mus musculus, UniProt Q64729); experiment: Inhibition of ALK5 in mouse C2C12 cells assessed as decrease in TGFbeta1-induced Smad2/3 phosphorylation at 0.1 to 10 uM by Western blot method; assay type: cell-based
T5 sequence (Q64729 whole entry): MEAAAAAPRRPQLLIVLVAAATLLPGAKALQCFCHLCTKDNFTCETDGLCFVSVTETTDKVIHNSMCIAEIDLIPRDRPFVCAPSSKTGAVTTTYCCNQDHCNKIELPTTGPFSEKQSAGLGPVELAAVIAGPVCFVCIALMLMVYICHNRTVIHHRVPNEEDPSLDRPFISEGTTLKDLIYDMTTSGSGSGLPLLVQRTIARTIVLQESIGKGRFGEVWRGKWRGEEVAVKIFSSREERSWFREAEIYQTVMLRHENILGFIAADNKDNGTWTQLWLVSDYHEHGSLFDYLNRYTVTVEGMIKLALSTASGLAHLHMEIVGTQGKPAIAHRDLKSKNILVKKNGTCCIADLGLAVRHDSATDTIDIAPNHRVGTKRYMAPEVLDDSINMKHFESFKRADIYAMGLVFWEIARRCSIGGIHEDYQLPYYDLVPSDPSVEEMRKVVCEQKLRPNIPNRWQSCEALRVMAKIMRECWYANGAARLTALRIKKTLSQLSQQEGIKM

[23] = biological target: T1, Activin receptor type-1-like (Mus musculus); experiment: Inhibition of BMP9-stimulated ALK1 in mouse C2C12 cells assessed as decrease in ERK1/2 phosphorylation at 0.1 to 10 uM pretreated for 2 hrs followed by BMP9-stimulation after 30 mins by western blot analysis; assay type: cell-based
[24] = biological target: T4, Activin receptor type-1; experiment: Inhibition of human ALK2 using casein as substrate in presence of 200 uM ATP by radiometric kinase assay
[25] = biological target: T6, Vascular endothelial growth factor receptor 3 (Homo sapiens, UniProt P35916); settings: 1 uM
T6 sequence (P35916 whole entry): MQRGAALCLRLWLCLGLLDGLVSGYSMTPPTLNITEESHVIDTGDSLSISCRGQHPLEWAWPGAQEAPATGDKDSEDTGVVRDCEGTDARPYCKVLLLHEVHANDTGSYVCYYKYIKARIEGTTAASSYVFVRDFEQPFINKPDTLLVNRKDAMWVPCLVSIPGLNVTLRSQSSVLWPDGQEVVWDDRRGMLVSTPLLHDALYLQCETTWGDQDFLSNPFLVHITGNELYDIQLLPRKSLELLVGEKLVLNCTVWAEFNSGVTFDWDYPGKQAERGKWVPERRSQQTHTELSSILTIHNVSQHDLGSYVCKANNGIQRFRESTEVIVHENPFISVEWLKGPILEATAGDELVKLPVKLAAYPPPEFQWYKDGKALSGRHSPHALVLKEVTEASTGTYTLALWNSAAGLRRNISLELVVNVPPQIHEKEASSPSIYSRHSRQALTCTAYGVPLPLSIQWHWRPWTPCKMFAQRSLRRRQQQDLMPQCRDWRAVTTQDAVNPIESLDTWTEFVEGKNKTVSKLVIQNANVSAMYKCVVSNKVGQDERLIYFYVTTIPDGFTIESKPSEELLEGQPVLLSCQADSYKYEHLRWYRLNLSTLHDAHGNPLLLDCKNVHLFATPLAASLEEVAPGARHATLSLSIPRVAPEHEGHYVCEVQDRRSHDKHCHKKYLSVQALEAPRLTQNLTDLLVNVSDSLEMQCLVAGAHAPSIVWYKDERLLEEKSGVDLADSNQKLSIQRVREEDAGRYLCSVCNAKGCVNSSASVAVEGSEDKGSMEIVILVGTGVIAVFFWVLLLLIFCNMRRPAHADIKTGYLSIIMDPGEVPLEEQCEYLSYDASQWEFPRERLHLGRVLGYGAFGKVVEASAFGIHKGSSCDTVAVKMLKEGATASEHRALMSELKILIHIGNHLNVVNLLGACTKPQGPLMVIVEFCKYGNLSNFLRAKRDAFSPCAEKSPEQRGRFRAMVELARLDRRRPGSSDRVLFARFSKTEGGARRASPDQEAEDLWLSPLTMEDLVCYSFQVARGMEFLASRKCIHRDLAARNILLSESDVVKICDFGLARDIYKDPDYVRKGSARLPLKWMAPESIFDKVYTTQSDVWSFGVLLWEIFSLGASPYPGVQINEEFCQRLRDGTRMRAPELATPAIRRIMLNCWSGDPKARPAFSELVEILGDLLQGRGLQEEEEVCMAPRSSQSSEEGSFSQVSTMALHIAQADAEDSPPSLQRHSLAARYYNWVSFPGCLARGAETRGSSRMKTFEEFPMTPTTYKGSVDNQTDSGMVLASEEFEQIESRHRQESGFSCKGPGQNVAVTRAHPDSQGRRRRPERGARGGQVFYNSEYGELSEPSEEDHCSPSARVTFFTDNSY
Description: Inhibition of human FLT4 at 1 uM using poly[Glu:Tyr] (4:1) as substrate in presence of [gamma-33P]-ATP by scintillation counting method relative to control

[26] = biological target: ALK3 (bone morphogenetic protein receptor type-1A) (Homo sapiens, UniProt P36894); experiment: Inhibition of human ALK3 at 10 uM using casein as substrate in presence of 200 uM ATP by radiometric kinase assay relative to control; settings: probe casein
[27] = biological target: T3, Activin receptor type-1-like; experiment: Inhibition of human ALK1 using casein as substrate in presence of 10 uM ATP by radiometric kinase assay
[28] = system: HUVEC; experiment: Angiogenic activity in HUVEC assessed as increase in vessel areas at 2 to 50 uM by microfluidic chip based 3D angiogenesis assay; assay type: functional, cell-based; settings: Homo sapiens
[29] = biological target: Dual specificity mitogen-activated protein kinase kinase 6 (Homo sapiens) (UniProt P52564); experiment: Inhibition of human MKK6 at 1 uM using p38a as substrate in presence of [gamma-33P]-ATP by scintillation counting method relative to control
[30] = biological target: T3, Activin receptor type-1-like; experiment: Inhibition of human ALK1 using casein as substrate in presence of 200 uM ATP by radiometric kinase assay
[31] = system: MDA-MB-231; experiment: Antiproliferative activity against human MDA-MB-231 cells up to 100 uM after 72 hrs by CellTiter 96 non-radioactive cell proliferation assay; assay type: cell-based; settings: mda-mb-231, 72 h
[32] = biological target: T1, Activin receptor type-1-like (Mus musculus); experiment: Inhibition of BMP9-stimulated ALK1 in mouse C2C12 cells assessed as reduction in Smad1/5 phosphorylation at 10 uM pretreated for 2 hrs followed by BMP9-stimulation after 30 mins by western blot analysis relative to control; assay type: cell-based
[33] = biological target: ALK5 (TGF-beta receptor type-1) (Homo sapiens, UniProt P36897); experiment: Inhibition of human ALK5 at 10 uM using casein as substrate in presence of 200 uM ATP by radiometric kinase assay relative to control; settings: human ALK5 kinase (TGF-beta receptor type-1), probe casein
Chain of ALK5 (TGF-beta receptor type-1) (P36897 whole entry): as the sequence (P36897 whole entry) above

[34] = biological target: T5, TGF-beta receptor type-1; experiment: Inhibition of ALK5 in mouse C2C12 cells assessed as decrease in TGFbeta1-induced Smad1/5 phosphorylation at 10 uM by Western blot method; assay type: cell-based
[35] = biological target: Dual specificity mitogen-activated protein kinase kinase 6 (Homo sapiens, UniProt P52564); experiment: Inhibition of human MKK6 using p38a as substrate in presence of [gamma-33P]-ATP by scintillation counting method
[36] = biological target: T3, Activin receptor type-1-like; settings: 1 uM; remark: listed apart in the source
Description: Inhibition of human ALK1 at 1 uM using casein as substrate in presence of [gamma-33P]-ATP by scintillation counting method relative to control

[37] = biological target: T6, Vascular endothelial growth factor receptor 3; experiment: Inhibition of human FLT4 using poly[Glu:Tyr] (4:1) as substrate in presence of [gamma-33P]-ATP by scintillation counting method
[38] = biological target: T3, Activin receptor type-1-like; experiment: Inhibition of human ALK1 using casein as substrate in presence of [gamma-33P]-ATP by scintillation counting method

Compound: COc1cc(O)c2c(c1)CCC[C@H](O)[C@H](O)C(=O)CCC[C@H](C)OC2=O
- inhibition [1]: Active
- inhibition [2]: > 80%
- inhibition [3]: > 80%
- IC50 [4]: 2760 nM
- inhibition [5]: Active
- inhibition [6]: inactive
- inhibition [7]: Active
- Activity [8]: Active
- IC50 [9]: 163 nM
- Activity [10]: Dose-dependent effect
- Activity [11]: Active
- IC50 [12]: 217 nM
- IC50 [13]: 6270 nM
- inhibition [14]: Active
- inhibition [15]: inactive
- IC50 [16]: 7210 nM
- inhibition [17]: inactive
- IC50 [18]: 727 nM
- inhibition at 10 µM [19]: < 40%
- Activity [20]: Dose-dependent effect
- inhibition at 10 µM [21]: < 40%
- inhibition (INH) [22]: Not Active
- inhibition [23]: inactive
- IC50 [24]: 3350 nM
- inhibition [25]: > 80%
- inhibition at 10 µM [26]: < 40%
- IC50 [27]: 62 nM
- Activity [28]: Active
- inhibition [29]: 89%
- IC50 [30]: 1210 nM
- Activity [31]: Non-Toxic
- inhibition [32]: 100%
- inhibition at 10 µM [33]: < 40%
- inhibition (INH) [34]: Active
- IC50 [35]: > 10000 nM
- inhibition [36]: > 80%
- IC50 [37]: 114 nM
- IC50 [38]: 62 nM
